Results: the supplement of paper PMC11208160

experiment: recombinant UMI read abundance after kanamycin selection (control-corrected) (log10(CPM+1)); higher = more efficient recombination; extreme values may be limits of the assay; sequences stand for … in AGTGCAGAGAAAATCGGCCAGTTTTCTCTGCCTGCAGTCCGCATGCCGTGGGACCCCTTGGGTTCTAACCTGTTGCCTAGATTTATGCAGCGGACTGCCTTTCTCCCAAAGTGATAAACCGG…AGGTTGGTTTCACT; site = the 11-nt donor
Outline: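 Values are reported as log10(CPM+1), obtained by converting sequencing counts to CPM, averaging replicates and scaling by control-derived factors. The counts came from recombinant UMIs amplified by PCR across the donor–target junction. These UMIs came from a pooled Escherichia coli screen of donor and donor-binding-loop pairs for the IS621 bridge recombinase, plated with IPTG (0.07 mM) plus kanamycin or left unselected, in two replicates each.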
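Also: IS621 bridge recombinase in Escherichia coli cells against a fixed T5 target plasmid.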

“TCGTATCCATGGACCGGTTTTCCCGGTAATCCGTATTTGAC (site TCGTATCCTGT)” and “TCGTCACCATGGACCGGTTTTCCCGGTAATCCGTATTTGTA (site TCGTCACCTTA)” are within 0.2 log units of each other in “recombinant UMI read abundance (log10)” value: 0 for the first, 0.0393 for the second.

First: TCGTGCACATGGACCGGTTTTCCCGGTAATCCGTATTTGAC (site TCGTGCACTGT)
Second: TCGTTCGCATGGACCGGTTTTCCCGGTAATCCGTATTTGCT (site TCGTTCGCTAG)
The “recombinant UMI read abundance (log10)” value of the first is higher: 1.93 for the first, 0 for the second.

Going from “TCTAAGTCATGGACCGGTTTTCCCGGTAATCCGTATTTGCA (site TCTAAGTCTTG)” to “TCTAGAACATGGACCGGTTTTCCCGGTAATCCGTATTTGAG (site ACTAGAACTCT)”, the “recombinant UMI read abundance (log10)” value falls from 0.436 to 0.00743.

“TCTAGAACATGGACCGGTTTTCCCGGTAATCCGTATTTGAG (site CCTAGAACTCT)” and “TCTAGAACATGGACCGGTTTTCCCGGTAATCCGTATTTGAG (site GCTAGAACTCT)” are within 0.2 log units of each other in “recombinant UMI read abundance (log10)” value: 0.0482 for the first, 0 for the second.

“TCTAGAACATGGACCGGTTTTCCCGGTAATCCGTATTTGAG (site TCTAGAACTCT)” and “TCTATGACATGGACCGGTTTTCCCGGTAATCCGTATTTGTG (site TCTATGACTCA)” are within 0.2 log units of each other in “recombinant UMI read abundance (log10)” value: 0.00301 for the first, 0.00894 for the second.

“TCTGGACCATGGACCGGTTTTCCCGGTAATCCGTATTTGAC (site TCTGGACCTGT)” and “TCTGGCGCATGGACCGGTTTTCCCGGTAATCCGTATTTGCC (site TCTGGCGCTGG)” are the same in “recombinant UMI read abundance (log10)” value: 0 for the first, 0 for the second.

“TCTTCCGCATGGACCGGTTTTCCCGGTAATCCGTATTTGAT (site TCTTCCGCTAT)” and “TCTTCGGCATGGACCGGTTTTCCCGGTAATCCGTATTTGGC (site TCTTCGGCTGC)” are within 0.2 log units of each other in “recombinant UMI read abundance (log10)” value: 0.00526 for the first, 0 for the second.

“TGAAGCTCATGGACCGGTTTTCCCGGTAATCCGTATTTGGG (site TGAAGCTCTCC)” and “TGACAACCATGGACCGGTTTTCCCGGTAATCCGTATTTGCC (site TGACAACCTGG)” are within 0.2 log units of each other in “recombinant UMI read abundance (log10)” value: 0.0156 for the first, 0 for the second.

First: TGACACCCATGGACCGGTTTTCCCGGTAATCCGTATTTGAA (site TGACACCCTTT)
Second: TGACCGGCATGGACCGGTTTTCCCGGTAATCCGTATTTGGC (site TGACCGGCTGC)
The “recombinant UMI read abundance (log10)” value of the first is lower: 0.0711 for the first, 1.25 for the second.

“TGACCGGCATGGACCGGTTTTCCCGGTAATCCGTATTTGGC (site TGCCCGGCTGC)” and “TGACCGGCATGGACCGGTTTTCCCGGTAATCCGTATTTGGC (site TGGCCGGCTGC)” are the same in “recombinant UMI read abundance (log10)” value: 0 for the first, 0 for the second.

Going from “TGACCGGCATGGACCGGTTTTCCCGGTAATCCGTATTTGGC (site TGTCCGGCTGC)” to “TGACGGTCATGGACCGGTTTTCCCGGTAATCCGTATTTGAA (site TGACGGTCTTT)”, the “recombinant UMI read abundance (log10)” value rises from 0 to 1.52.

Compared with “TGACTATCATGGACCGGTTTTCCCGGTAATCCGTATTTGCC (site TGACTATCTGG)”, “TGAGCTACATGGACCGGTTTTCCCGGTAATCCGTATTTGCC (site TGAGCTACTGG)” is lower in “recombinant UMI read abundance (log10)” value: 1.54 for the first, 0.451 for the second.

Compared with “TGAGCTTCATGGACCGGTTTTCCCGGTAATCCGTATTTGTA (site TGAGCTTCTTA)”, “TGAGGCACATGGACCGGTTTTCCCGGTAATCCGTATTTGGT (site TGAGGCACTAC)” is lower in “recombinant UMI read abundance (log10)” value: 1.92 for the first, 0.463 for the second.

Going from “TGAGGTCCATGGACCGGTTTTCCCGGTAATCCGTATTTGAA (site TGAGGTCCTTT)” to “TGAGTCACATGGACCGGTTTTCCCGGTAATCCGTATTTGAC (site TGAGTCACTGT)”, the “recombinant UMI read abundance (log10)” value rises from 0.00722 to 2.61.

“TGATAGACATGGACCGGTTTTCCCGGTAATCCGTATTTGCC (site AGATAGACTGG)” and “TGATAGACATGGACCGGTTTTCCCGGTAATCCGTATTTGCC (site CGATAGACTGG)” are within 0.2 log units of each other in “recombinant UMI read abundance (log10)” value: 1.96 for the first, 2.02 for the second.

Going from “TGATAGACATGGACCGGTTTTCCCGGTAATCCGTATTTGCC (site GGATAGACTGG)” to “TGATAGACATGGACCGGTTTTCCCGGTAATCCGTATTTGCC (site TGATAGACTGG)”, the “recombinant UMI read abundance (log10)” value rises from 0 to 2.54.

Compared with “TGATCCTCATGGACCGGTTTTCCCGGTAATCCGTATTTGCT (site CGATCATCTAG)”, “TGATCCTCATGGACCGGTTTTCCCGGTAATCCGTATTTGCT (site TGATCCTCTAG)” is higher in “recombinant UMI read abundance (log10)” value: 0.523 for the first, 1.81 for the second.

“TGATGAGCATGGACCGGTTTTCCCGGTAATCCGTATTTGGG (site TAATGAGCTCC)” and “TGATGAGCATGGACCGGTTTTCCCGGTAATCCGTATTTGGG (site TCATGAGCTCC)” are within 0.2 log units of each other in “recombinant UMI read abundance (log10)” value: 0.0122 for the first, 0.0102 for the second.

Compared with “TGATGAGCATGGACCGGTTTTCCCGGTAATCCGTATTTGGG (site TGATGAGCTCC)”, “TGATGAGCATGGACCGGTTTTCCCGGTAATCCGTATTTGGG (site TTATGAGCTCC)” is lower in “recombinant UMI read abundance (log10)” value: 0.403 for the first, 0.0217 for the second.

Going from “TGATTAGCATGGACCGGTTTTCCCGGTAATCCGTATTTGGG (site TGATTAGCTCC)” to “TGCACCACATGGACCGGTTTTCCCGGTAATCCGTATTTGCT (site TGCACCACTAG)”, the “recombinant UMI read abundance (log10)” value rises from 0 to 1.3.

First: TGCACGGCATGGACCGGTTTTCCCGGTAATCCGTATTTGTT (site TGCACGGCTAA)
Second: TGCCACCCATGGACCGGTTTTCCCGGTAATCCGTATTTGTT (site AGCCACCCTAA)
The “recombinant UMI read abundance (log10)” value of the first is higher: 0.724 for the first, 0.00473 for the second.

“TGCCACCCATGGACCGGTTTTCCCGGTAATCCGTATTTGTT (site CGCCACCCTAA)” and “TGCCACCCATGGACCGGTTTTCCCGGTAATCCGTATTTGTT (site GGCCACCCTAA)” are within 0.2 log units of each other in “recombinant UMI read abundance (log10)” value: 0.0165 for the first, 0.00763 for the second.

“TGCCACCCATGGACCGGTTTTCCCGGTAATCCGTATTTGTT (site TGCCACCCTAA)” and “TGCCATGCATGGACCGGTTTTCCCGGTAATCCGTATTTGCC (site TGCCATGCTGG)” are within 0.2 log units of each other in “recombinant UMI read abundance (log10)” value: 0.0117 for the first, 0.0153 for the second.

“TGCCCAACATGGACCGGTTTTCCCGGTAATCCGTATTTGGT (site TGCCCAACTAC)” and “TGCCCTGCATGGACCGGTTTTCCCGGTAATCCGTATTTGTT (site TGCCCTGCTAA)” are within 0.2 log units of each other in “recombinant UMI read abundance (log10)” value: 0.06 for the first, 0.0362 for the second.

“TGCCTATCATGGACCGGTTTTCCCGGTAATCCGTATTTGTT (site TGCCTATCTAA)” and “TGCCTCGCATGGACCGGTTTTCCCGGTAATCCGTATTTGGG (site TGCCTCGCTCC)” are within 0.2 log units of each other in “recombinant UMI read abundance (log10)” value: 0.0105 for the first, 0.0166 for the second.

First: TGCGAGCCATGGACCGGTTTTCCCGGTAATCCGTATTTGAA (site TGCGAGCCTTT)
Second: TGCGAGGCATGGACCGGTTTTCCCGGTAATCCGTATTTGTA (site TGCGAGGCTTA)
The “recombinant UMI read abundance (log10)” value of the first is lower: 0.00414 for the first, 1.41 for the second.

“TGCGCTTCATGGACCGGTTTTCCCGGTAATCCGTATTTGGG (site TGCGCTTCTCC)” and “TGCGGACCATGGACCGGTTTTCCCGGTAATCCGTATTTGCA (site TGCGGACCTTG)” are within 0.2 log units of each other in “recombinant UMI read abundance (log10)” value: 0.0195 for the first, 0 for the second.

First: TGCGGACCATGGACCGGTTTTCCCGGTAATCCGTATTTGCT (site TGCGGACCTAG)
Second: TGCGTGACATGGACCGGTTTTCCCGGTAATCCGTATTTGAT (site TGCGTGACTAT)
The “recombinant UMI read abundance (log10)” value of the first is lower: 0.00621 for the first, 1.94 for the second.

First: TGCGTGTCATGGACCGGTTTTCCCGGTAATCCGTATTTGCC (site TGCGTGTCTGG)
Second: TGCTATACATGGACCGGTTTTCCCGGTAATCCGTATTTGAT (site TGCTATACTAT)
The “recombinant UMI read abundance (log10)” value of the first is higher: 2.33 for the first, 0.285 for the second.

“TGCTCAGCATGGACCGGTTTTCCCGGTAATCCGTATTTGTT (site TGCTCAGCTAA)” and “TGCTCCCCATGGACCGGTTTTCCCGGTAATCCGTATTTGTA (site TGATCCCCTTA)” are within 0.2 log units of each other in “recombinant UMI read abundance (log10)” value: 0 for the first, 0.0151 for the second.

“TGCTCCCCATGGACCGGTTTTCCCGGTAATCCGTATTTGTA (site TGCTCCCCTTA)” and “TGCTCCCCATGGACCGGTTTTCCCGGTAATCCGTATTTGTA (site TGGTCCCCTTA)” are within 0.2 log units of each other in “recombinant UMI read abundance (log10)” value: 0.00702 for the first, 0.00608 for the second.

Compared with “TGCTCCCCATGGACCGGTTTTCCCGGTAATCCGTATTTGTA (site TGTTCCCCTTA)”, “TGCTCCGCATGGACCGGTTTTCCCGGTAATCCGTATTTGTG (site TGCTCCGCTCA)” is higher in “recombinant UMI read abundance (log10)” value: 0.00224 for the first, 0.265 for the second.

“TGCTGCACATGGACCGGTTTTCCCGGTAATCCGTATTTGAA (site TGCTGCACTTT)” and “TGCTGCTCATGGACCGGTTTTCCCGGTAATCCGTATTTGGT (site TGCTGCTCTAC)” are within 0.2 log units of each other in “recombinant UMI read abundance (log10)” value: 0.0328 for the first, 0.182 for the second.

Compared with “TGCTTAGCATGGACCGGTTTTCCCGGTAATCCGTATTTGTC (site TGCTTAGCTGA)”, “TGCTTGACATGGACCGGTTTTCCCGGTAATCCGTATTTGCT (site TACTTGACTAG)” is higher in “recombinant UMI read abundance (log10)” value: 0 for the first, 1.51 for the second.
